Reference: US9610463B2, “Cosmetic or dermatological preparation comprising collagen, chitosan, glycosylaminoglycan and cell growth promoting peptide and/or cellular complex” (BEIERSDORF AG, priority 2009, dated 2017)
Several values for one entry are separate records, joined by “and”; a condition that tells them apart may be missing. Equal values may be shown once.

Legend:
Assay type in all cases: cell-based
[1] = tested on: HacaT keratinocyte cell line; test: ECM expression (ELISA): hyaluronic acid expression by keratinocyte cells; settings: control = 100
Experimental: Method: • (1) Cell seeding • (2) Starvation for 24 h with serum-free DMEM media • (3) Sample treatment • (4) Cultivation for 72 h • (5) Cell supernatant collection • (6) Assay […]

[2] = tested on: NIH3T3 fibroblast cell line; test: ECM expression (ELISA): fibronectin expression by fibroblast cells; settings: control = 100
Experimental: (§1) The effect of the addition of MPC and MPC+IDP4 on the extracellular matrix expression of procollagen, fibronectin, elastin, hyaluronic acid and laminine by the following cells was investigated: • 1. HacaT keratinocyte cell line (hyaluronic acid, laminine) • 2. NIH3T3 fibroblast cell line (procollagen, fibronectin, elastin).
(§2) Method: • (1) Cell seeding • (2) Starvation for 24 h with serum-free DMEM media • (3) Sample treatment • (4) Cultivation for 72 h • (5) Cell supernatant collection • (6) Assay
(§3) Assay (ELISA): • (a) Coating with capture antibody • (b) Blocking (blocking solution) • (c) Aspiration and washing each well five times • (d) Addition of sample and standard to each well • (e) Aspiration and washing each well five times • (f) Addition of conjugate to each well • (g) Aspiration and washing each well five times • (h) Addition of substrate solution to each well • (i) Addition of stop solution to each well • (j) Reading of optical density at 450 nm
as §1, with “GPVE” for “MPC”, “GPVE+IDP4” for “MPC+IDP4”
as §1, with “GPVE/MPC” for “the addition of MPC”, “GPVE/MPC+IDP4” for “MPC+IDP4”

[3] = tested on: HacaT keratinocyte cell line; test: ECM expression (ELISA): laminine expression by keratinocyte cells; settings: control = 100
Experimental: as §1, §2, §3
as §1, with “GPVE” for “MPC”, “GPVE+IDP4” for “MPC+IDP4”
as §1, with “GPVE/MPC” for “the addition of MPC”, “GPVE/MPC+IDP4” for “MPC+IDP4”

[4] = tested on: NIH3T3 fibroblast cell line; test: ECM expression (ELISA): procollagen expression by fibroblast cells; settings: control = 100
Experimental: as §1, §2, §3
as §1, with “GPVE” for “MPC”, “GPVE+IDP4” for “MPC+IDP4”
as §1, with “GPVE/MPC” for “the addition of MPC”, “GPVE/MPC+IDP4” for “MPC+IDP4”

mesenchymal stem cells = test: Protective effect against H2O2 (anti-apoptosis effect); settings: W/O H2O2; With H2O2 0% MPC = 100
Experimental: The protective (anti-apoptosis) effect of the addition of MPC and MPC+IDP4 on mesenchymal stem cells against H2O2 (free radical former) was tested.
Method: • (1) Cell seeding • (2) Starvation for 24 h with serum-free DMEM media • (3) Sample treatment • (4) Cultivation for 24 h • (5) Treatment with 5 mM H2O2 • (6) Incubation for 24 h • (7) Cell growth assay

[5] = tested on: NIH3T3 fibroblast cell line; test: ECM expression (ELISA): elastin expression by fibroblast cells; settings: control = 100
Experimental: as §1, §2, §3
as §1, with “GPVE” for “MPC”, “GPVE+IDP4” for “MPC+IDP4”
as §1, with “GPVE/MPC” for “the addition of MPC”, “GPVE/MPC+IDP4” for “MPC+IDP4”

[6] = tested on: MSC (mesenchymal stem cells); test: Cell growth assay, mesenchymal stem cells
Experimental: (§4) The effect of the addition of MPC vs. (MPC+IDP4), GPVE vs. (GPVE+IDP4), and GPVE/MPC vs. (GPVE/MPC=IDP4) on the growth of the following cells was investigated: • 1. HacaT keratinocyte cell line • 2. NIH3T3 fibroblast cell line • 3. MSC (mesenchymal stem cells).
(§5) Method: • (1) Cell seeding • (2) Starvation for 24 h with serum-free DMEM media • (3) Sample treatment • (4) Cultivation for 72 h • (5) Cell harvesting • (6) Cell growth assay

[7] = tested on: HacaT keratinocyte cell line; test: Cell growth assay, HacaT keratinocyte cell line
Experimental: as §4, §5

[8] = tested on: NIH3T3 fibroblast cell line; test: Cell growth assay, NIH3T3 fibroblast cell line
Experimental: as §4, §5

[9] = alone at the concentration employed (1 μg)

oligopeptide-21 [IDP4]
hyaluronic acid % ([1]; 10 ng/ml): 110% | hyaluronic acid % ([1]; 100 ng/ml): 137.5% | hyaluronic acid % ([1]; 1 μg/ml): 150% | hyaluronic acid % ([1]; 10 μg/ml): 160% | fibronectin % ([2]; 10 ng/ml): 101% | fibronectin % ([2]; 100 ng/ml): 105% | fibronectin % ([2]; 1 μg/ml): 116% | fibronectin % ([2]; 10 μg/ml): 158% | laminine % ([3]; 10 ng/ml): 115% | laminine % ([3]; 100 ng/ml): 135% | laminine % ([3]; 1 μg/ml): 175% | laminine % ([3]; 10 μg/ml): 177.5% | procollagen % ([4]; 10 ng/ml): 175% | procollagen % ([4]; 100 ng/ml): 226% | procollagen % ([4]; 1 μg/ml): 302% | procollagen % ([4]; 10 μg/ml): 333% | cell growth, MSC (mesenchymal stem cells): 175 | elastin % ([5]; 10 ng/ml): 131% | elastin % ([5]; 100 ng/ml): 127% | elastin % ([5]; 1 μg/ml): 137% | elastin % ([5]; 10 μg/ml): 131% and 137% | growth, MSC (%) ([6]; 10 μg/ml, control = 100): 145% | significance of increase in growth, mesenchymal stem cells [6, 9]: did not afford any statistically significant increase in growth | growth, Haca T (%) ([7]; 10 μg/ml, control = 100): 148% | significance of increase in growth, keratinocyte cell line [7, 9]: did not afford any statistically significant increase in growth | growth, NIH3T3 (%) ([8]; 10 μg/ml, control = 100): 260% | significance of increase in growth, fibroblast cell line [8, 9]: did not afford any statistically significant increase in growth
